According to patent US20070027162A1, “Crystalline and amorphous 4-cyano-N-{(2R)-2-[4-(2,3-dihydro-benzo[1,4]dioxin-5-yl)-piperazin -1-yl]-propyl}-N-pyridin-2-yl-benzamide hydrochloride” (Wyeth, priority 2005, published 2007):
Read-outs that look alike come from different tables or passages of the source. Blank lines part the entries; values can stand above or below the compound they belong to.

Assays:
Format in all cases: physicochemical
[1] = Reslurry experiments, 12 days at RT, XRD while wet; conditions: ethanol, IPA, ethyl acetate, acetone, THF, acetonitrile, toluene, iso-propyl acetate, water, days 6 and 12
Method: 4-cyano-N-{(2R)-2-[4-(2,3-dihydro-benzo[1,4]dioxin-5-yl)-piperazin-1-yl]-propyl}-N-pyridin-2-yl-benzamide hydrochloride was reslurried in about 1-2 ml of ethanol, IPA, ethyl acetate, acetone, THF, acetonitrile, toluene, iso-propyl acetate, and water. The suspensions were stirred in 5 ml vials for 12 days at RT. The suspension samples were withdrawn at days 6 and 12, filtered, and analyzed via XRD while wet.

[2] = Polymorph screen by reslurry at 23° C. and 50° C.; conditions: slurrying in a variety of different solvents at 23° C. and 50° C.
Text: Thermogravimetric analysis (TGA) and differential scanning calorimetry (DSC) data of products of various re-slurries are compared in Tables B and C below together with TGA/DSC data from the crystal form of the invention prepared according to Example 1. TGA/DSC data was obtained as described in Example 3. While DSC endotherms and TGA weight losses slightly differ between experiments, the variation is expected for HCl loss and decomposition of the sample. Powder X-ray diffraction data (see below Examples) of samples from each of the slurries were consistent with the diffraction pattern of FIG. 1 and Table 1.

[3] = Solubility determination in a variety of solvents
Method: The solubility of the compound of Formula I in a variety of solvents was measured according to routine methods at 23° C. and 50° C.

- Form transformation on reslurry (XRD) [1]: No transformation was noticed
- Stability of crystal form upon slurrying [2]: remained stable
Structure (SMILES): C[C@H](CN(C(=O)c1ccc(C#N)cc1)c1ccccn1)N1CCN(c2cccc3c2OCCO3)CC1.Cl [Form A, 4-cyano-N-{(2R)-2-[4-(2,3-dihydro-benzo[1,4]dioxin-5-yl)-piperazin-1-yl]-propyl}-N-pyridin-2-yl-benzamide hydrochloride]

- solubility ([3]; organic solvent or mixture, solvent 2-Propanol, 23° C., read-out: Solubility at 23° C.): 2 mg/mL
- solubility ([3]; organic solvent or mixture, solvent 2-Propanol, 50° C., read-out: Solubility at 50° C.): 6 mg/mL
- solubility ([3]; organic solvent or mixture, solvent Acetone, 23° C., read-out: Solubility at 23° C.): 6 mg/mL
- solubility ([3]; organic solvent or mixture, solvent Acetone, 50° C., read-out: Solubility at 50° C.): 9 mg/mL
- solubility ([3]; organic solvent or mixture, solvent CH3CN, 23° C., read-out: Solubility at 23° C.): 18 mg/mL
- solubility ([3]; organic solvent or mixture, solvent CH3CN, 50° C., read-out: Solubility at 50° C.): 37 mg/mL
- solubility ([3]; organic solvent or mixture, solvent DMSO, 23° C., read-out: Solubility at 23° C.): 246 mg/mL
- solubility ([3]; organic solvent or mixture, solvent DMSO, 50° C., read-out: Solubility at 50° C.): 337 mg/mL
- solubility ([3]; organic solvent or mixture, solvent EtOH, 23° C., read-out: Solubility at 23° C.): 19 mg/mL
- solubility ([3]; organic solvent or mixture, solvent EtOH, 50° C., read-out: Solubility at 50° C.): 40 mg/mL
- solubility ([3]; organic solvent or mixture, solvent Ethyl acetate, 23° C., read-out: Solubility at 23° C.): 16 mg/mL
- solubility ([3]; organic solvent or mixture, solvent Ethyl acetate, 50° C., read-out: Solubility at 50° C.): 24 mg/mL
- solubility ([3]; organic solvent or mixture, solvent Heptane, 23° C., read-out: Solubility at 23° C.): 1 mg/mL
- solubility ([3]; organic solvent or mixture, solvent Heptane, 50° C., read-out: Solubility at 50° C.): 1 mg/mL
- solubility ([3]; organic solvent or mixture, solvent MeOH, 23° C., read-out: Solubility at 23° C.): 378 mg/mL
- solubility ([3]; organic solvent or mixture, solvent MeOH, 50° C., read-out: Solubility at 50° C.): 989 mg/mL
- solubility ([3]; organic solvent or mixture, solvent THF, 23° C., read-out: Solubility at 23° C.): 4 mg/mL
- solubility ([3]; organic solvent or mixture, solvent THF, 50° C., read-out: Solubility at 50° C.): 5 mg/mL
- solubility ([3]; organic solvent or mixture, solvent Toluene, 23° C., read-out: Solubility at 23° C.): 8 mg/mL
- solubility ([3]; organic solvent or mixture, solvent Toluene, 50° C., read-out: Solubility at 50° C.): 14 mg/mL
- solubility ([3]; organic solvent or mixture, solvent t-Butylmethyl ether (t-BME), 50° C., read-out: Solubility at 50° C.): 1 mg/mL
- solubility ([3]; solvent Water, 23° C., read-out: Solubility at 23° C.): 49 mg/mL
- solubility ([3]; solvent Water, 50° C., read-out: Solubility at 50° C.): > 100 mg/mL
- Solubility in water (qualitative) ([3]; water, remark explaining oiling out on cooling): very high solubility
Structure (SMILES): C[C@H](CN(C(=O)c1ccc(C#N)cc1)c1ccccn1)N1CCN(c2cccc3c2OCCO3)CC1.Cl [Formula I, 4-cyano-N-{(2R)-2-[4-(2,3-dihydro-benzo[1,4]dioxin-5-yl)-piperazin-1-yl]-propyl}-N-pyridin-2-yl-benzamide hydrochloride]
